From US6372774B1, “Derivatives of N-phenylpyrazoles” (Rhone-Poulenc Agriculture Ltd., priority 1985, dated 2002)
Where two headings read alike, the source gives them in different places.

Columns and labels:
Assay type in all cases: in vivo
[1] = system: Phaedon cochleariae (Mustard Beetle); assay: Test 3 a): leaf disc spray test, Phaedon cochleariae larvae; settings: for pest or weed control at 10 ppm / mortality at 5 ppm: Phaedon cochleariae, foliar; for pest or weed control at 10 ppm: read-out: Phaedon % m 10 ppm; for mortality at 5 ppm: read-out: mortality of larvae of Phaedon cochleariae
From the text: (§1) One or more dilutions of the compounds to be tested were made in 50% aqueous acetone.
(§2) a) Test species: Plutella xylostella (Diamond-back Moth) and Phaedon cochleariae (Mustard Beetle)
(§3) Turnip leaf discs were set in agar in petri-dishes and infected with 10 larvae (2nd instar Plutella or 3rd instar Phaedon). Four replicate dishes were assigned to each treatment and were sprayed under a Potter Tower with the appropriate test dilution. Four or five days after treatment the dishes were removed from the constant temperature (25° C.) room in which they had been held and the mean percentage mortalities of larvae were determined.

[2] = system: Megoura viciae (Vetch Aphid); assay: Test 3 b): spray of infested tic bean plants, Megoura viciae; settings: for score from 4 replicates, Megoura viciae: Test 3 method (b), application of 50 ppm, score 0-3 per replicate, maximum 12; for mortality at 50 ppm: Megoura viciae, read-out: mortality of Megoura viciae
Description: as §1
b) Megoura viciae (Vetch Aphid)
Potted tic bean plants previously infected with mixed stages of Megoura were sprayed to run-off using a laboratory turntable sprayer. Treated plants were held in a greenhouse for 2 days and were assessed for aphid mortality using a scoring system, judging the response in comparison with plants treated with 50% aqueous acetone alone, as controls.

[3] = system: Plutella xylostella (Diamond-back Moth); assay: whole plant or invertebrate; settings: foliar; for mortality at 500 ppm: read-out: mortality of larvae of Plutella xylostella
From the text: as §1, §2, §3

[4] = Tables 1-3, % mortality at 10 ppm

Compound	score from 4 replicates, Megoura viciae [2]	mortality at 50 ppm [2] [%]	mortality at 500 ppm [3] [%]	mortality at 5 ppm [1] [%]	further results
5-Amino-3-chlorodifluoromethyl-1-(2,6-dichloro-4-trifluoromethylphenyl)-4-cyanopyrazole [Compound 128]	12	–	–	–	Phaedon % m 10 ppm [1, 4]: 100%
5-Amino-3-chlorofluoromethyl-4-cyano-1-(2,6-dichloro-4-trifluoromethylphenyl)pyrazole [Compound 166]	12	–	–	–	–
Cc1nn(-c2c(Cl)cc(C(F)(F)F)cc2Cl)c(N)c1C#N [Compound 112, 5-Amino-4-cyano-1-(2,6-dichloro-4-trifluoromethylphenyl)-3-methylpyrazole]	12	100	–	–	pest or weed control at 10 ppm [1]: 98%
CCSNc1c(C#N)c(C)nn1-c1c(Cl)cc(C(F)(F)F)cc1Cl [Compound 117, 4-Cyano-1-(2,6-dichloro-4-trifluoromethylphenyl)-3-methyl-5-ethanesulphenylaminopyrazole]	–	–	–	–	pest or weed control at 10 ppm [1]: 68%; Megoura score/12 at 10 ppm ([2]; Table 3, value marked +: score at 10 ppm): 10+
Cc1c(C#N)c(C(F)(F)F)nn1-c1c(Cl)cc(C(F)(F)F)cc1Cl [Compound 152, 4-Cyano-1-(2,6-dichloro-4-trifluoromethylphenyl)-5-methyl-3-trifluoromethylpyrazole]	–	–	100	–	pest or weed control at 10 ppm [1]: 100%
CN(C)S(=O)(=O)c1c(C(F)(F)F)nn(-c2c(Cl)cc(C(F)(F)F)cc2Cl)c1N [Compound 153, 5-Amino-1-(2,6-dichloro-4-trifluoromethylphenyl)-4-(N,N-dimethylsulphamoyl)-3-trifluoromethylpyrazole]	–	–	–	–	pest or weed control at 10 ppm [1]: 100%; Megoura score/12 50 ppm ([2]; Tables 1 and 3, 50 ppm, sum of scores 0-3 of 4 replicates): 11
N#Cc1c(C(F)(F)C(F)(F)C(F)(F)F)nn(-c2c(Cl)cc(C(F)(F)F)cc2Cl)c1N [Compound 155, 5-Amino-4-cyano-1-(2,6-dichloro-4-trifluoromethylphenyl)-3-heptafluoropropylpyrazole]	–	–	–	–	pest or weed control at 500 ppm ([3]; Tables 1-2, % mortality at 500 ppm, read-out: Plutella % m 500 ppm): 96%; pest or weed control at 10 ppm [1, 4]: 100%
N#Cc1nn(-c2c(Cl)cc(SC(F)(F)F)cc2Cl)c(N)c1C#N [Compound 156, 5-Amino-3,4-dicyano-1-(2,6-dichloro-4-trifluoromethylthiophenyl)pyrazole]	12	100	–	–	–
Cc1nn(-c2c(Cl)cc(C(F)(F)F)cc2Cl)c(N)c1S(C)(=O)=O [Compound 161, 5-Amino-1-(2,6-dichloro-4-trifluoromethylphenyl)-4-methanesulphonyl-3-methylpyrazole]	12	100	–	100	–
N#Cc1c(C(F)(F)F)nn(-c2c(Cl)cc(SC(F)(F)F)cc2Cl)c1N [Compound 165, 5-Amino-4-cyano-1-(2,6-dichloro-4-trifluoromethylthiophenyl)-3-trifluoromethylpyrazole]	12	100	–	100	–
CC(C)(C)C(=O)Nc1c([N+](=O)[O-])c(C(F)(F)F)nn1-c1c(Cl)cc(C(F)(F)F)cc1Cl [Compound 178, 1-(2,6-Dichloro-4-trifluoromethylphenyl)-4-nitro-3-trifluoromethyl-5-trimethylacetylaminopyrazole]	–	–	100	100	–
CCOC(=O)Nc1c([N+](=O)[O-])c(C(F)(F)F)nn1-c1c(Cl)cc(C(F)(F)F)cc1Cl [Compound 179, 1-(2,6-Dichloro-4-trifluoromethylphenyl)-5-ethoxycarbonylamino-4-nitro-3-trifluoromethylpyrazole]	–	–	100	100	–
CCOC(=O)Nc1c(S(C)(=O)=O)c(C(F)(F)F)nn1-c1c(Cl)cc(C(F)(F)F)cc1Cl [Compound 187, 1-(2,6-Dichloro-4-trifluoromethylphenyl)-5-ethoxycarbonylamino-4-methanesulphonyl-3-trifluoromethylpyrazole]	–	–	100	100	–
CCOC(=O)Nc1c(C#N)c(C#N)nn1-c1c(Cl)cc(C(F)(F)F)cc1Cl [Compound 188, 1-(2,6-Dichloro-4-trifluoromethylphenyl)-3,4-dicyano-5-ethoxycarbonylaminopyrazole]	–	–	100	100	–
Cc1nn(-c2c(Cl)cc(C(F)(F)F)cc2Cl)c(N)c1I [Compound 190, 5-Amino-1-(2,6-dichloro-4-trifluoromethylphenyl)-4-iodo-3-methylpyrazole]	12	100	–	–	–
Cc1nn(-c2c(Cl)cc(C(F)(F)F)cc2Cl)c(N)c1[N+](=O)[O-] [Compound 191, 5-Amino-1-(2,6-dichloro-4-trifluoromethylphenyl)-3-methyl-4-nitropyrazole]	12	100	–	–	–
O=[N+]([O-])c1cn(-c2c(Cl)cc(C(F)(F)F)cc2Cl)nc1C(F)(F)F [Compound 193, 1-(2,6-Dichloro-4-trifluoromethylphenyl)-4-nitro-3-trifluoromethylpyrazole]	–	–	100	100	–
N#Cc1cn(-c2c(Cl)cc(C(F)(F)F)cc2Cl)nc1[N+](=O)[O-] [Compound 200, 1-(2,6-Dichloro-4-trifluoromethylphenyl)-4-cyano-3-nitropyrazole]	12	100	–	–	–
N#Cc1nn(-c2c(Cl)cc(C(F)(F)F)cc2Cl)c([N+](=O)[O-])c1C#N [Compound 201, 1-(2,6-Dichloro-4-trifluoromethylphenyl)-3,4-dicyano-5-nitropyrazole]	12	100	–	–	–
CC(C)(C)[Si](C)(C)c1c(C#N)c(C(F)(F)F)nn1-c1c(Cl)cc(C(F)(F)F)cc1Cl [Compound 206, 5-tert.-Butyldimethylsilyl-4-cyano-1-(2,6-dichloro-4-trifluoromethylphenyl)-3-trifluoromethylpyrazole]	12	100	–	100	–
CSc1c(C#N)c(C(F)(F)F)nn1-c1c(Cl)cc(C(F)(F)F)cc1Cl [Compound 207, 4-Cyano-1-(2,6-dichloro-4-trifluoromethylphenyl)-5-methylthio-3-trifluoromethylpyrazole]	–	–	100	100	–
COC(=O)Nc1c(C#N)c(C(F)(F)F)nn1-c1c(Cl)cc(C(F)(F)F)cc1Cl [Compound 212, 4-Cyano-1-(2,6-dichloro-4-trifluoromethylphenyl)-5-methoxycarbonylamino-3-trifluoromethylpyrazole]	–	–	100	100	–
C[S+]([O-])c1c(C(F)(F)F)nn(-c2c(Cl)cc(C(F)(F)F)cc2Cl)c1N (centres unmarked) [Compound 216, 5-Amino-1-(2,6-dichloro-4-trifluoromethylphenyl)-4-methylsulphinyl-3-trifluoromethylpyrazole]	–	–	100	100	–
CCSc1c(C)nn(-c2c(Cl)cc(C(F)(F)F)cc2Cl)c1N [Compound 225, 5-Amino-1-(2,6-dichloro-4-trifluoromethylphenyl)-4-ethylthio-3-methylpyrazole]	12	100	–	–	–
CSc1c(C(F)(F)F)nn(-c2c(Cl)cc(C(F)(F)F)cc2Cl)c1N [Compound 229, 5-Amino-1-(2,6-dichloro-4-trifluoromethylphenyl)-4-methylthio-3-trifluoromethylpyrazole]	–	–	100	100	–
